Several values for one entry are separate records, joined by “and”; a condition that tells them apart may be missing. Identical values can stand only once. Entries after “also recorded” stand apart in the source; their conditions may differ.
Tested on: normotensive Wister rats
Experiment: Bradykinin-potentiating effect on blood pressure in anaesthetized normotensive rats
Format: in vivo, rat
Protocol: In the in vivo experiments with normotensive rats the animals were previously anaesthetized and after blood pressure stabilization treated with a constant amount of bradykinin. Subsequently, either Captopril or human BPP were administered, again followed by a constant amount of bradykinin. Afterwards the maximum blood pressure drop was determined and, on the basis of bradykinin as a factor 1, the potentiating factor was determined. In the same way, the systolic and diastolic blood pressure, the percentage middle pressure decrease and the time required to come back to the baseline values were measured (see tables 4a to 4j). A detailed experimental description is given below.
2. Measurement of Blood Pressure in Normotensive and Hypertensive Rats
The trials were conducted on female anaesthetized normotensive Wister rats with weight ranging from 210 to 240 g.
The peptide pANP48-57 used for the in vivo assays was synthesized by Biosynthan (Berlin) with a HPLC-determined purity of 98%.
Anaesthetizing was performed by i.p.-administration of 1 ml/kg Ketavit (100 mg/ml)+Rampun (2%).
In order to conduct the blood pressure measurement, a polyethylene catheter was introduced into the Aorta femuralis and connected with a pressure transducer. A Statham-P23A pressure-transducer was linked to a Gould Polygraph and used to determine the arterial blood pressure. A Hg-manometer was used to calibrate the system.
All substances were dissolved and diluted in a physiological sodium chloride solution and introduced into the Vena jugularis via a catheter.
After stabilization of blood pressure (after about 10 minutes) […] body weight of a 2,5 μM bradykinin-solution (Sigma) was administered.
The middle pressure was determined from the measured diastolic (pd) and systolic (ps) blood pressure by using the following formula: pm=(ps−Pd)×0,42+pd.

[1] = S605 1 × 10^−3 M + Bradykinin 2.5 × 10^−6 M
[2] = S605 1 × 10^−3 M + Bradykinin 2.5 × 10^−6 M, individual female rat
[3] = S605 1.5 × 10^−3 M + Bradykinin 2.5 × 10^−6 M
[4] = S605 1.5 × 10^−3 M + Bradykinin 2.5 × 10^−6 M, Rat (female) 216 g, Table 4j
[5] = S605 1.5 × 10^−3 M + Bradykinin 2.5 × 10^−6 M, individual female rat
[6] = S605 1.5 × 10^−4 M + Bradykinin 2.5 × 10^−6 M
[7] = S605 1.5 × 10^−4 M + Bradykinin 2.5 × 10^−6 M, individual female rat
[8] = S605 5 × 10^−3 M + Bradykinin 2.5 × 10^−6 M
[9] = S605 5 × 10^−3 M + Bradykinin 2.5 × 10^−6 M, Rat (female) 211 g, Table 4i
[10] = S605 5 × 10^−3 M + Bradykinin 2.5 × 10^−6 M, individual female rat

With `CC(C)C[C@H](NC(=O)[C@H](C)N)C(=O)N[C@@H](CO)C(=O)N1CCC[C@H]1C(=O)N[C@@H](CC(C)C)C(=O)N1CCC[C@H]1C(=O)N[C@@H](CCC(=O)O)C(=O)N[C@H](C(=O)N1CCC[C@H]1C(=O)N1CCC[C@H]1C(=O)O)C(C)C` [Peptide S545] the “maximal drop of blood pressure” value [1] was 48.5%, the “potentiating factor (Bradykinin = 1)” value [1] was 1.49 and the “Blood pressure minimal, PM (middle pressure) = (Ps − Pd) × 0.42 + Pd” value (“Blood pressure minimal, PM” for short) [2] was 39 mg Hg. The “Blood pressure minimal, diastolic” value [2] was 28 mg Hg, the “Blood pressure minimal, systolic” value [2] was 55 mg Hg and the “time to reach the baseline value” [2] was “time to reach the baseline value (t = 31 s)”. For the same compound, the “ΔP (middle pressure drop)” value [2] was 37 mg Hg, the “ΔP (middle pressure drop), percentage” value [2] was 48.5% and the “maximal drop of blood pressure” value [3] was 50.5% ± 5.2. The “potentiating factor (Bradykinin = 1)” value [3] was 1.61, the “Blood pressure minimal, PM” value [4] was 39 mg Hg and the “Blood pressure minimal, diastolic” value [4] was 28 mg Hg. The “Blood pressure minimal, systolic” value [4] was 55 mg Hg, the “following short overreaction at maximum (systolic/diastolic)” value [4] was “following short overreaction at maximum of 106/80” and the “time to reach the baseline value” [4] was “time to reach the baseline value (t = 20 s)”. The “ΔP (middle pressure drop)” value [4] was 43 mg Hg, the “ΔP (middle pressure drop), percentage” value [4] was 52.4% and the “Blood pressure minimal, PM” value [5] was 40 mg Hg and 34 mg Hg. For the same compound, the “Blood pressure minimal, diastolic” value [5] was 34 mg Hg and 26 mg Hg, the “Blood pressure minimal, systolic” value [5] was 49 mg Hg and 45 mg Hg and the “time to reach the baseline value” [5] was “time to reach the baseline value (t = 46 s); also recorded: time to reach the baseline value (t = 57 s)”. For the same compound, the “ΔP (middle pressure drop)” value [5] was 32 mg Hg and 41 mg Hg, the “ΔP (middle pressure drop), percentage” value [5] was 44.6% and 54.4% and the “maximal drop of blood pressure” value [6] was 38.9% ± 8.3. For the same compound, the “potentiating factor (Bradykinin = 1)” value [6] was 1.24, the “Blood pressure minimal, PM” value [7] was 48 mg Hg and 34 mg Hg and 33 mg Hg and the “Blood pressure minimal, diastolic” value [7] was 40 mg Hg and 26 mg Hg and 28 mg Hg. For the same compound, the “Blood pressure minimal, systolic” value [7] was 60 mg Hg and 46 mg Hg and 40 mg Hg, the “time to reach the baseline value” [7] was “time to reach the baseline value (t = 26 s); also recorded: time to reach the baseline value (t = 36 s); also recorded: time to reach the baseline value (t = 23 s)” and the “ΔP (middle pressure drop)” value [7] was 22 mg Hg and 32 mg Hg and 20 mg Hg. For the same compound, the “ΔP (middle pressure drop), percentage” value [7] was 31.4% and 47.9% and 37.4%, the “maximal drop of blood pressure” value [8] was 63.8% ± 3.6 and the “potentiating factor (Bradykinin = 1)” value [8] was 2.04. For the same compound, the “Blood pressure minimal, PM” value [9] was 44 mg Hg, the “Blood pressure minimal, diastolic” value [9] was 35 mg Hg and the “Blood pressure minimal, systolic” value [9] was 56 mg Hg. The “following short overreaction at maximum (systolic/diastolic)” value [9] was “following short overreaction at maximum of 141/108”, the “time to reach the baseline value” [9] was “time to reach the baseline value (t = 44 s)” and the “ΔP (middle pressure drop)” value [9] was 70 mg Hg. The “ΔP (middle pressure drop), percentage” value [9] was 61.4%, the “following short overreaction at maximum of (systolic/diastolic blood pressure)” value (S605 5 × 10^−3 M + Bradykinin 2.5 × 10^−6 M, after return to baseline) was “following short overreaction at maximum of 112/84; also recorded: following short overreaction at maximum of 154/112” and the “Blood pressure minimal, PM” value [10] was 24 mg Hg and 40 mg Hg. For the same compound, the “Blood pressure minimal, diastolic” value [10] was 16 mg Hg and 32 mg Hg, the “Blood pressure minimal, systolic” value [10] was 36 mg Hg and 52 mg Hg and the “time to reach the baseline value” [10] was “time to reach the baseline value (t = 36 s); also recorded: time to reach the baseline value (t = 87 s)”. The “ΔP (middle pressure drop)” value [10] was 52 mg Hg and 66 mg Hg, the “ΔP (middle pressure drop), percentage” value [10] was 68% and 62.1% and the “bradykinin-potentiating effect (short-time decrease of blood pressure induced by bradykinin)” value (normotensive rats, result in words) was “concentration dependent bradykinin-potentiating”. The “fold higher molecular concentration in comparison to Captopril required for the bradykinin-potentiating effect in vivo” value (relative to Captopril) was 10 fold.
